Laboratory results: US9732094B2, “Arylquinazolines” (Merck Patent GmbH, priority 2013, dated 2017)
Like-named read-outs stand apart in the source and are kept apart here.

How the values were obtained:
[1] = biological target: DNA-PK (Homo sapiens (Human), UniProt P78527); test: DNA-PK assay (biochemical), flashplate 33P-ATP kinase assay; conditions: biochemical DNA-PK assay
In short: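 Reactions ran in streptavidin-coated flashplates and were halted by 200 mM EDTA, with a further 30 min at room temperature before saline washing.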

[2] = biological target: Kv11.1 (hERG) (Homo sapiens (Human), UniProt Q12809); test: Kv11.1 (hERG) ion channel activity (patch clamp assay), HEK293 cells transfected with hERG gene; conditions: hERG patch clamp assay (cells without asterisk)
Chain of Kv11.1 (hERG) (Q12809 whole entry): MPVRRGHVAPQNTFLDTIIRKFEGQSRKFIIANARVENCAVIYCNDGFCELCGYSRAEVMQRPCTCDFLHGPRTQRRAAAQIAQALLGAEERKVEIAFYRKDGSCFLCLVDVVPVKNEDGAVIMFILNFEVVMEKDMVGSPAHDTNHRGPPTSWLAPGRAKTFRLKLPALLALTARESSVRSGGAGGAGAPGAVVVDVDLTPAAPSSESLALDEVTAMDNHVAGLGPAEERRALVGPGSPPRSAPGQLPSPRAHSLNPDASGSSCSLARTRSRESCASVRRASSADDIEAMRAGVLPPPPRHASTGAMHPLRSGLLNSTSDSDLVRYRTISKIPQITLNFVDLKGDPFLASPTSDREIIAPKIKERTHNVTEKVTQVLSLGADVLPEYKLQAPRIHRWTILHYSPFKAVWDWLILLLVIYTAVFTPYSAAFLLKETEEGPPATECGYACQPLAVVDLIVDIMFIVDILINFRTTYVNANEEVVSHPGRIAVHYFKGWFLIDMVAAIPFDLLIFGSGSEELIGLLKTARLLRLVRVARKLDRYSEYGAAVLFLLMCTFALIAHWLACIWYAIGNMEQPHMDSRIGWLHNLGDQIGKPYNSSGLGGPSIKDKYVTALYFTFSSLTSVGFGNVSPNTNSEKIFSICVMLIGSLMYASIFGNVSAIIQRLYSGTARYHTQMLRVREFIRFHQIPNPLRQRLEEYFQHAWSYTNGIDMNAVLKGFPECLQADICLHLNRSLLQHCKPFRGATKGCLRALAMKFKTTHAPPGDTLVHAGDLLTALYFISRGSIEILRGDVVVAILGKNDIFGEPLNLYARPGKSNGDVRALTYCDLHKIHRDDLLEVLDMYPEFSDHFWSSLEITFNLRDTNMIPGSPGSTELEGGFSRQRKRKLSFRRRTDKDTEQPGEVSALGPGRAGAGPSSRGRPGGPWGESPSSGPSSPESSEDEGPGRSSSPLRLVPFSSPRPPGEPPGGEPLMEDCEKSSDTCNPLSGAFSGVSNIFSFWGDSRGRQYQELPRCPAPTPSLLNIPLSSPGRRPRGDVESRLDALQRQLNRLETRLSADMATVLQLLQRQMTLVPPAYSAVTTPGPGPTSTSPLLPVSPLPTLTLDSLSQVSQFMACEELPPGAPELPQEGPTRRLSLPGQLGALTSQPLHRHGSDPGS

[3] = biological target: DNA-PK phosphorylation at serine 2056 (Homo sapiens (Human), UniProt P78527); test: DNA-PK phosphorylation at serine 2056 (cellular), bleomycin-treated HCT116 cells, ELISA; format: cell-based; conditions: cellular DNA-PK phosphorylation at serine 2056, HCT116; read-out: IC50 pDNA-PK
In short: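 HCT116 cells were treated with 10 μM bleomycin plus test compounds for six hours at 37 °C. Phospho-Ser2056 DNA-PK measured by chemiluminescent ELISA, normalised to total DNA-PKcs signal; DMSO control as blank.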

| SMILES | IC50 [1] [µM] | Ki ([2]; Ki [Kv1.11 hERG]) [µM] | IC50 [3] [µM] | Ki ([2]; read-out: Ki [Kv1.11 hERG]) [µM] |
| --- | --- | --- | --- | --- |
| NC(=O)C(c1cc(-c2ncnc3cc(N4CCOCC4)ccc23)c(F)cc1Cl)c1ncccc1Cl (stereo not drawn) [Example 289, 2-[2-Chloro-4-fIuoro-5-(7-morpholin-4-yl-quinazolin-4-yl)-phenyl]-2-(3-chloro-pyridin-2-yl)-acetamide] | < 0.003 | 15 to 25 | 0.5 to 5 |  |
| NC(=O)C(c1ccc(F)c(-c2ncnc3cc(N4CCOCC4)ccc23)c1)c1nnc(Cl)c2ccsc12 (stereo not drawn) [Example 290, 2-(4-Chlorothieno-[2,3-d}pyridazin-7-yl)-2-[4-fluoro-3-(7-morpholin-4-yl-quinazolin-4-yl)-phenyl]acetamide] | 0.003 to 0.007 |  | 5 to 10 | < 10 |
| NC(=O)C(c1ccc(F)c(-c2ncnc3cc(N4CCOCC4)ccc23)c1)c1nnc(Cl)c2sccc12 (stereo not drawn) [Example 291, 2-(7-Chlorothieno-[2,3-d}pyridazin-4-yl)-2-[4-fluoro-3-(7-morpholin-4-yl-quinazolin-4-yl)-phenyl]acetamide] | 0.003 to 0.007 |  | 5 to 10 | < 10 |
| NC(=O)c1cncc(C(C(N)=O)c2ccc(F)c(-c3ncnc4cc(N5CCOCC5)ccc34)c2)n1 (stereo not drawn) [Example 292, 6-{Carbamoyl-[4-fluoro-3-(7-morpholin-4-yl-quinazolin-4-yl)-phenyl]methyl}-pyrazine-2-carboxylic acid amide] | 0.007 to 0.03 |  | 10 to 30 | > 25 |
| NC(=O)C(c1cccnc1)c1cc(-c2ncnc3cc(N4CCOCC4)ccc23)c(F)cc1Cl (stereo not drawn) [Example 293, 2-[2-Chloro-4-fiuoro-5-(7-morpholin-4-yl-quinazolin-4-yl)-phenyl]-2-pyridin-3-ylacetamide] | 0.003 to 0.007 |  | 5 to 10 | > 25 |
| NC(=O)C(c1cccnc1)c1cc(-c2ncnc3cc(N4CCOCC4)ccc23)c(F)cc1F (stereo not drawn) [Example 294, 2-[2,4-Difluoro-5-(7-morpholin-4-yl-quinazolin-4-yl)-phenyl]-2-pyridin-3-ylacetamide] | 0.003 to 0.007 |  | 10 to 30 | > 25 |
| NC(=O)C(c1cccnc1)c1ccc(F)c(-c2ncnc3cc(N4CCOCC4)ccc23)c1 (stereo not drawn) [Example 295, 2-[4-Fluoro-3-(7-morpholin-4-yl-quinazolin-4-yl)-phenyl]-2-pyridin-3-ylacetamide] | 0.007 to 0.03 |  | 10 to 30 | > 25 |
| Cc1cncc(C(O)c2ccc(F)c(-c3ncnc4cc(N5CCOCC5)ccc34)c2)n1 (stereo not drawn) [Example 296, [4-Floro-3-(7-morpholin-4-yl-quinazolin-4-yl)-phenyl]-(6-methyl-pyrazin-2-yl)-methanol] | 0.007 to 0.03 |  | 5 to 10 | > 25 |
| NC(=O)C(c1cncc(Cl)c1)c1ccc(F)c(-c2ncnc3cc(N4CCOCC4)ccc23)c1 (stereo not drawn) [Example 297, 2-(5-Chloro-pyridin-3-yl)-2-[4-fluoro-3-(7-morpholin-4-yl-quinazolin-4-yl)-phenyl]acetamide] | 0.007 to 0.03 | 10 to 15 | 10 to 30 |  |
| NC(=O)C(c1cc(-c2ncnc3cc(N4CCOCC4)ccc23)c(F)cc1Cl)c1cccc2nncn12 (stereo not drawn) [Example 298, 2-[2-Chloro-4-fluoro-5-(7-morpholin-4-yl-quinazolin-4-yl)-phenyl]-2-[1,2,4]-triazolo[4,3-a]pyridin-5-ylacetamide] | 0.007 to 0.03 |  | 10 to 30 | > 25 |
| NC(=O)C(c1ccc(F)c(-c2ncnc3cc(N4CCOCC4)ccc23)c1)c1ncnn2cccc12 (stereo not drawn) [Example 299, 2-[4-Fluoro-3-(7-morpholin-4-yl-quinazolin-4-yl)-phenyl]-2-pyrrolo-[2,1-f][1,2,4]triazin-4-ylacetamide] | 0.007 to 0.03 |  | 10 to 30 | < 10 |
| NC(=O)C(c1cccnn1)c1cc(-c2ncnc3cc(N4CCOCC4)ccc23)c(F)cc1Cl (stereo not drawn) [Example 300, 2-[2-Chloro-4-fluoro-5-(7-morpholin-4-yl-quinazolin-4-yl)-phenyl]-2-pyridazin-3-ylacetamide] | 0.007 to 0.03 |  | 10 to 30 | > 25 |
| Cc1cnc(C(C(N)=O)c2cc(-c3ncnc4cc(N5CCOCC5)ccc34)c(F)cc2Cl)c(C)n1 (stereo not drawn) [Example 301, 2-[2-Chloro-4-fluoro-5-(7-morpholin-4-yl-quinazolin-4-yl)-phenyl]-2-(3,5-dimethyl-pyrazin-2-yl)acetamide] | 0.007 to 0.03 |  | 0.5 to 5 | > 25 |
| Nc1cncc(C(O)c2ccc(F)c(-c3ncnc4cc(N5CCOCC5)ccc34)c2)n1 (stereo not drawn) [Example 302, (6-Amino-pyrazin-2-yl)-[4-fluoro-3-(7-morpholin-4-yl-quinazolin-4-yl)-phenyl]methanol] | 0.003 to 0.007 |  | 5 to 10 | > 25 |
| Cc1nccnc1C(C(N)=O)c1cc(-c2ncnc3cc(N4CCOCC4)ccc23)ccc1Cl (stereo not drawn) [Example 303, 2-[2-Chloro-5-(7-morpholin-4-yl-quinazolin-4-yl)-phenyl]-2-(3-methyl-pyrazin-2-yl)-acetamide] | 0.007 to 0.03 | 15 to 25 | 5 to 10 |  |
| COc1nccnc1C(C(N)=O)c1cc(-c2ncnc3cc(N4CCOCC4)ccc23)ccc1Cl (stereo not drawn) [Example 304, 2-[2-Chloro-5-(7-morpholin-4-yl-quinazolin-4-yl)-phenyl]-2-(3-methoxy-pyrazin-2-yl)acetamide] | 0.007 to 0.03 |  | 5 to 10 | > 25 |
| COc1nccnc1C(C(N)=O)c1ccc(F)c(-c2ncnc3cc(N4CCOCC4)ccc23)c1 (stereo not drawn) [Example 305, 2-[4-Fluoro-3-(7-morpholin-4-yl-quinazolin-4-yl)-phenyl]-2-(3-methoxy-pyrazin-2-yl)acetamide] | 0.007 to 0.03 |  | 5 to 10 | > 25 |
| COc1ccc(C(C(N)=O)c2cc(-c3ncnc4cc(N5CCOCC5)ccc34)c(F)cc2F)nn1 (stereo not drawn) [Example 306, 2-[2,4-Difluoro-5-(7-morpholin-4-yl-quinazolin-4-yl)-phenyl]-2-(6-methoxy-pyridazin-3-yl)acetamide] | 0.007 to 0.03 |  | 10 to 30 | > 25 |
| COc1nnccc1C(C(N)=O)c1cc(-c2ncnc3cc(N4CCOCC4)ccc23)c(F)cc1Cl (stereo not drawn) [Example 307, 2-[2-Chloro-4-fluoro-5-(7-morpholin-4-yl-quinazolin-4-yl)-phenyl]-2-(3-methoxypyridazin-4-yl)acetamide] | 0.003 to 0.007 |  | 5 to 10 | > 25 |
| COc1ccc(C(C(N)=O)c2ccc(F)c(-c3ncnc4cc(N5CCOCC5)ccc34)c2)nn1 (stereo not drawn) [Example 308, 2-[4-Fluoro-3-(7-morpholin-4-yl-quinazolin-4-yl)-phenyl]-2-(6-methoxypyridazin-3-yl)acetamide] | 0.007 to 0.03 |  | 10 to 30 | > 25 |
| COc1ccc(C(C(N)=O)c2cc(-c3ncnc4cc(N5CCOCC5)ccc34)ccc2Cl)nn1 (stereo not drawn) [Example 310, 2-[2-Chloro-5-(7-morpholin-4-yl-quinazolin-4-yl)-phenyl]-2-(6-methoxy-pyridazin-3-yl)acetamide] | > 0.03 | 15 to 25 | 10 to 30 |  |
| Cn1nc(C(C(N)=O)c2cc(-c3ncnc4cc(N5CCOCC5)ccc34)c(F)cc2Cl)ccc1=O (stereo not drawn) [Example 311, 2-[2-Chloro-4-fluoro-5-(7-morpholin-4-yl-quinazolin-4-yl)-phenyl]-2-(1-methyl-6-oxo-1,6-dihydro-pyridazin-3-yl)-acetamide] | > 0.03 |  | 10 to 30 | > 25 |
| Cn1c(C(C(N)=O)c2cc(-c3ncnc4cc(N5CCOCC5)ccc34)c(F)cc2Cl)cccc1=O (stereo not drawn) [Example 312, 2-[2-Chloro-4-fluoro-5-(7-morpholin-4-yl-quinazolin-4-yl)-phenyl]-2-(1-methyl-6-oxo-1,6-dihydro-pyridin-2-yl)-acetamide] | > 0.03 |  | 10 to 30 | > 25 |
| NC(=O)C(c1ccc(F)c(-c2ncnc3cc(N4CCOCC4)ccc23)c1)c1ncccc1Cl (stereo not drawn) [Example 313, 2-(3-Chloro-pyridin-2-yl)-2-[4-fluoro-3-(7-morpholin-4-yl-quinazolin-4-yl)-phenyl]acetamide] | 0.007 to 0.03 | 15 to 25 | 5 to 10 |  |
| Cc1ncc(C(O)c2ccc(F)c(-c3ncnc4cc(N5CCOCC5)ccc34)c2)nc1C (stereo not drawn) [Example 314, (5,6-Dimethyl-pyrazin-2-yl)-[4-fluoro-3-(7-morpholin-4-yl-quinazolin-4-yl)-phenyl]methanol] | 0.007 to 0.03 | 15 to 25 | 0.5 to 5 |  |
| NC(=O)C(c1cc(-c2ncnc3cc(N4CCOCC4)ccc23)ccc1Cl)c1nccnc1Cl (stereo not drawn) [Example 315, 2-[2-Chloro-5-(7-morpholin-4-yl-quinazolin-4-yl)-phenyl]-2-(3-chloro-pyrazin-2-yl)-acetamide] | > 0.03 | 10 to 15 | 10 to 30 |  |
| Cn1nc(C(C(N)=O)c2ccc(F)c(-c3ncnc4cc(N5CCOCC5)ccc34)c2)ccc1=O (stereo not drawn) [Example 317, 2-[4-Fluoro-3-(7-morpholin-4-yl-quinazolin-4-yl)-phenyl]-2-(1-methyl-6-oxo-1,6-dihydro-pyridazin-3-yl)-acetamide] | > 0.03 | 15 to 25 | 10 to 30 |  |
| Cc1cnc(C(C(N)=O)c2ccc(F)c(-c3ncnc4cc(N5CCOCC5)ccc34)c2)c(C)n1 (stereo not drawn) [Example 318, 2-(3,5-Dimethyl-pyrazin-2-yl)-2-[4-fluoro-3-(7-morpholin-4-yl-quinazolin-4-yl)-phenyl]acetamide] | 0.007 to 0.03 |  | 10 to 30 | > 25 |
